Reference: US12157730B2, “Heteroaryl derivative, method for producing same, and pharmaceutical composition comprising same as effective component” (VORONOI INC., priority 2019, dated 2024)

Molecular target: T1, Ba/F3 cell EGFR Exon20 ins NPH (Homo sapiens, UniProt P00533, INS773NPH)
T1 construct: expressed in transfected cells; host or cells: Ba/F3
Experiment: Ba/F3 cell proliferation suppression, EGFR Exon20 ins NPH
Assay type: cell-based
Details: GI50 class; Ba/F3 cell line with NPH inserted at Exon20 of EGFR; 72 hours
How it was run: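 Cells (3000–5000/well) plated 24 h before compound, 12-point 3-fold dilutions at 0.3 nM to 50 um final; Ba/F3 lines grown with 5 ng/ml IL-3. Viability by CellTiter-Glo luminescence after 72 h, growth ratio vs control, GI50 from curves; triplicate.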

| SMILES | Ba/F3 (NPH) Activity |
| --- | --- |
| C#Cc1cccc([C@H]2CCON2c2cc(Nc3cc(NC(=O)C=C)c(N4CCC(N5CCN(CC)CC5)CC4)cc3OC)ncn2)c1 [compound 652, N-(2-(4-(4-ethylpiperazine-1-yl)piperidine-1-yl)-5-((6-((R)-3-(3-ethynylphenyl)isoxazolidine-2-yl)pyrimidine-4-yl)amino)-4-methoxyphenyl) acrylamide] | B (50 nM ≤ GI50 < 500 nM) |
| C=CC(=O)Nc1cc(Nc2cc(N3OCC[C@@H]3c3ccc(F)cc3)ncn2)c(OC)cc1N1CCC(N2C[C@@H]3C[C@H]2CO3)CC1 [compound 812, N-(2-(4-((1S,4S)-2-oxa-5-azabicyclo [2.2.1]heptane-5-yl)piperidine-1-yl)-5-((6-((R)-3-(4-fluorophenyl)isoxazolidine-2-yl)pyrimidine-4-yl)amino)-4-methoxyphenyl) acrylamide] | A (GI50 < 50 nM) |
| C=CCN1CCN(C2CCN(c3cc(OC)c(Nc4cc(N5OCC[C@@H]5c5ccc(F)c(F)c5)ncn4)cc3NC(=O)C=C)CC2)CC1 [Example 212, N-(2-(4-(4-allylpiperazine-1-yl)piperidine-1-yl)-5-((6-((R)-3-(3,4-difluorophenyl)isoxazolidine-2-yl)pyrimidine-4-yl)amino)-4-methoxyphenyl) acrylamide] | A (GI50 < 50 nM) |
| C=CC(=O)Nc1cc(Nc2cc(N3OCC[C@@H]3c3cccc(OC)c3)ncn2)c(OC)cc1N1CCN(C)CC1 [Example 25, N-(4-methoxy-5-((6-((R)-3-(3-methoxyphenyl)isoxazolidine-2-yl)pyrimidine-4-yl)amino)-2-(4-methylpiperazine-1-yl)phenyl) acrylamide] | B (50 nM ≤ GI50 < 500 nM) |
| C#Cc1cccc([C@H]2CCON2c2cc(Nc3cc(NC(=O)C=C)c(N4CCC(N5CCN(C)CC5)CC4)cc3OC)ncn2)c1 [compound 649, N-(5-((6-((R)-3-(3-ethynylphenyl)isoxazolidine-2-yl)pyrimidine-4-yl)amino)-4-methoxy-2-(4-(4-methylpiperazine-1-yl)piperidine-1-yl)phenyl) acrylamide] | A (GI50 < 50 nM) |
| C=CC(=O)Nc1cc(Nc2cc(N3OCC[C@@H]3c3cccc(Cl)c3Cl)ncn2)c(OC)cc1N1CCN(C(C)C)CC1 [compound 475, N-(5-((6-((R)-3-(2,3-dichlorophenyl)isoxazolidine-2-yl)pyrimidine-4-yl)amino)-2-(4-isopropylpiperazine-1-yl)-4-methoxyphenyl) acrylamide] | A (GI50 < 50 nM) |
| C=CC(=O)Nc1cc(Nc2cc(N3OCC[C@@H]3c3c(F)ccc(F)c3Cl)ncn2)c(OC)cc1N1CCC(N2CCN(C3CC3)[C@@H](C)C2)CC1 [compound 934, N-(5-((6-((R)-3-(2-chloro-3,6-difluorophenyl)isoxazolidine-2-yl)pyrimidine-4-yl)amino)-2-(4-((S)-4-cyclopropyl-3-methylpiperazine-1-yl)piperidine-1-yl)-4-methoxyphenyl) acrylamide] | A (GI50 < 50 nM) |
| C=CC(=O)Nc1cc(Nc2cc(N3OCC[C@@H]3c3ccc(F)cc3)ncn2)c(OC)cc1N1CCC(N2C[C@@H](C)O[C@@H](C)C2)CC1 [compound 814, N-(2-(4-((2S,6R)-2,6-dimethylmorpholino)piperidine-1-yl)-5-((6-((R)-3-(4-fluorophenyl)isoxazolidine-2-yl)pyrimidine-4-yl)amino)-4-methoxyphenyl) acrylamide] | A (GI50 < 50 nM) |
| C=CC(=O)Nc1cc(Nc2cc(N3OCC[C@@H]3c3cc(F)cc(F)c3)ncn2)c(OC)cc1N1CCC(N2CCN(C3COC3)CC2)CC1 [Example 79, N-(5-((6-((R)-3-(3,5-difluorophenyl)isoxazolidine-2-yl)pyrimidine-4-yl)amino)-4-methoxy-2-(4-(4-(oxetane-3-yl)piperazine-1-yl)piperidine-1-yl)phenyl)acrylamide] | A (GI50 < 50 nM) |
| C=CC(=O)Nc1cc(Nc2cc(N3OCC[C@@H]3c3ccccc3)ncn2)c(OC)cc1N1CCC(N2CCN(CC3CC3)CC2)CC1 [Example 91, N-(2-(4-(4-(cyclopropylmethyl)piperazine-1-yl)piperidine-1-yl)-4-methoxy-5-((6-((R)-3-phenylisoxazolidine-2-yl)pyrimidine-4-yl)amino)phenyl)acrylamide] | A (GI50 < 50 nM) |
| C=CC(=O)Nc1cc(Nc2cc(N3OCC[C@@H]3c3cccc(C(F)(F)F)c3)ncn2)c(OC)cc1N1CCC(N2C[C@@H]3C[C@H]2CO3)CC1 [compound 944, N-(2-(4-((1S,4S)-2-oxa-5-azabicyclo [2.2.1]heptane-5-yl)piperidine-1-yl)-4-methoxy-5-((6-((R)-3-(3-(trifluoromethyl)phenyl)isoxazolidine-2-yl)pyrimidine-4-yl)amino)phenyl) acrylamide] | A (GI50 < 50 nM) |
| C=CC(=O)Nc1cc(Nc2cc(N3OCC[C@H]3c3c(F)cccc3F)ncn2)c(OC)cc1N1CCC(N2CC[C@H](N(C)C)C2)CC1 [compound 315, N-(5-((6-((S)-3-(2,6-difluorophenyl)isoxazolidine-2-yl)pyrimidine-4-yl)amino)-2-(4-((S)-3-(dimethylamino)pyrolidine-1-yl)piperidine-1-yl)-4-methoxyphenyl) acrylamide] | C (500 nM ≤ GI50 < 5000 nM) |
| C=CC(=O)Nc1cc(Nc2cc(N3OCC[C@@H]3Cc3ccccc3)ncn2)c(OC)cc1N(C)CCN(C)C [compound 947, N-(5-((6-((S)-3-benzylisoxazolidine-2-yl)pyrimidine-4-yl)amino)-2-((2-(dimethylamino)ethyl)(methyl)amino)-4-methoxyphenyl) acrylamide] | A (GI50 < 50 nM) |
| C=CC(=O)Nc1cc(Nc2cc(N3OCC[C@H]3c3c(F)cccc3F)ncn2)c(OC)cc1N1CCN(CC)CC1 [compound 895, N-(5-((6-((S)-3-(2,6-difluorophenyl)isoxazolidine-2-yl)pyrimidine-4-yl)amino)-2-(4-ethylpiperazine-1-yl)-4-methoxyphenyl) acrylamide] | C (500 nM ≤ GI50 < 5000 nM) |
| C=CC(=O)Nc1cc(Nc2cc(N3OCC[C@@H]3c3ccc(F)cc3F)ncn2)c(OC)cc1N1C[C@H]2C[C@@H]1CO2 [compound 353, N-(2-((1R,4R)-2-oxa-5-azabicyclo[2.2.1]heptane-5-yl)-5-((6-((R)-3-(2,4-difluorophenyl)isoxazolidine-2-yl)pyrimidine-4-yl)amino)-4-methoxyphenyl) acrylamide] | A (GI50 < 50 nM) |
| C=CC(=O)Nc1cc(Nc2cc(N3OCC[C@@H]3c3cccc(F)c3Cl)ncn2)c(OC)cc1N1CCC(N2CCN(C(C)C)CC2)CC1 [compound 661, N-(5-((6-((R)-3-(2-chloro-3-fluorophenyl)isoxazolidine-2-yl)pyrimidine-4-yl)amino)-2-(4-(4-isopropylpiperazine-1-yl)piperidine-1-yl)-4-methoxyphenyl) acrylamide] | A (GI50 < 50 nM) |
| C=CC(=O)Nc1cc(Nc2cc(N3OCC[C@@H]3c3cc(F)cc(F)c3)ncn2)c(OC)cc1N1CCC(N2CCN(C)[C@@H](C)C2)CC1 [compound 760, N-(5-((6-((R)-3-(3,5-difluorophenyl)isoxazolidine-2yl)pyrimidine-4-yl)amino)-2-(4-((S)-3,4-dimethylpiperazine-1-yl)piperidine-1-yl)-4-methoxyphenyl) acrylamide] | A (GI50 < 50 nM) |
